Results on one compound are retold here after US12605380B2, “Methods of improving lung function” (Endeavor BioMedicines, Inc., priority 2024, dated 2026).

What all share (format): in vivo, human
The subject of experiment [1] is subjects with Idiopathic Pulmonary Fibrosis (IPF). The experiment can be described thus: Phase 2a study in IPF subjects: quantitative HRCT measurements (TLC, % QILD, % QLF, % QGG). As to the method:
(§1) Study Design. Eligible subjects with mild to moderate IPF were randomized to receive placebo or ENV-101 as a daily oral dose for 12 consecutive weeks of treatment. […] Subjects participated in a Screening Visit, a Day 1 randomization visit, a telephone visit at Week 1, visits at Week 6 and Week 12 during the treatment period and a follow-up visit at Week 18. All subjects were randomized to receive either placebo or 200 mg of taladegib (ENV-101). During the treatment period, if a subject experienced an adverse event that is related to the study medication, the dose of the study drug was permitted to be modified based on the type of adverse event observed and after consultation with the Sponsor and Medical Monitor. A study subject was considered to have completed the study if he or she completed all study visits including the last visit or the last scheduled procedure shown in the Schedule of Activities (SoA). [table] The dosing regimen evaluated in this study was ENV-101 or placebo administered daily. The dose of ENV-101 studied was 200 mg. Subjects randomized to ENV-101 took two 100 mg tablets daily for the 200 mg dose, while subjects randomized to placebo took two placebo tablets daily. Subjects took both tablets at the same time, and it was recommended that subjects take the dose at the same time each day, ideally in the morning prior to eating. If a subject experienced nausea or other gastrointestinal symptoms, it was recommended that the subject take the dose with a low-fat meal or prior to bedtime.

For experiment [2] the test system is unchanged. The experiment can be described thus: Post-hoc analysis of HRCT images with Qureight deep learning models (Lung8, Vascul8, Fibr8). From the text: A post-hoc analysis utilizing deep learning models developed by Qureight (using machine learning methodologies such as 3D convolutional neural networks), were employed to quantify lung volume (Lung8), vessel volume (Vascul8), fibrosis extent (Fibr8) and airway volume (Air8) from High Resolution Computed Tomography images. Deep learning-based CT biomarkers provide an alternate, non-invasive way to predict disease progression and/or assess treatment effects in antifibrotic clinical trials. 34 patients with baseline and week 12 HRCTs were available for model analysis. Of the 34 patients, 18 patients received placebo, and 16 received ENV-101. Group comparisons were performed with an independent t-test, and linear regression assessed variable relationships. Effect sizes were calculated using Hedges' G to account for sample size bias. A p-value<0.05 was considered significant.

Experiment [3] shares this test system. The experiment can be described thus: Phase 2a study in IPF subjects: lung function by forced vital capacity (FVC, ppFVC). As to the method:
Study Design. Eligible subjects with mild to moderate IPF were randomized to receive placebo or ENV-101 as a daily oral dose for 12 consecutive weeks of treatment. […] Subjects participated in a Screening Visit, a Day 1 randomization visit, a telephone visit at Week 1, visits at Week 6 and Week 12 during the treatment period and a follow-up visit at Week 18. All subjects were randomized to receive either placebo or 200 mg of taladegib (ENV-101). During the treatment period, if a subject experienced an adverse event that is related to the study medication, the dose of the study drug was permitted to be modified based on the type of adverse event observed and after consultation with the Sponsor and Medical Monitor. A study subject was considered to have completed the study if he or she completed all study visits including the last visit or the last scheduled procedure shown in the Schedule of Activities (SoA). • 1. Males and females greater than 40 years of age. • 2. Idiopathic Pulmonary Fibrosis diagnosis based upon […], Japanese Respiratory Society, European Respiratory Society, Latin […] guidelines within the last 7 years. Diagnosis will be confirmed to be consistent with IPF by centrally read high resolution computed tomography (HRCT) obtained at the Screening Visit or previous HRCT scan performed within 30 days of the Screening Visit may be used. • 3. Ability to successfully perform lung function tests. • 4. Percent predicted forced vital capacity (FVC) of >50% at the Screening Visit. • 5. […] Evidence of other known causes of interstitial lung disease (ILD) (e.g., domestic and occupational environmental exposures, connective-tissue disease [CTD], and drug toxicity), lung transplant expected within 12 months of screening or evidence of clinically significant lung disease other than IPF including but not limited to asthma, chronic obstructive pulmonary disease (COPD), uncontrolled pulmonary hypertension and emphysema where computed tomography (CT)-assessed extent of emphysema is greater than extent of fibrosis. • 2. […]

For experiment [4] the test system is unchanged. The experiment can be described thus: Phase 2a study in IPF subjects: patient reported outcome, UCSD Shortness of Breath Questionnaire (SOBQ). Conditions: 200 mg once a day, vs placebo, not statistically significant. As to the method:
as §1, with “If a subject experienced nausea or other gastrointestinal symptoms, it was recommended that the subject take the dose with a low-fat meal or prior to bedtime.” left out

Setting [5] is: week 12, ENV-101 vs placebo, Hedges' G.

For the compound `CN(C(=O)c1ccc(F)cc1C(F)(F)F)C1CCN(c2nnc(-c3ccnn3C)c3ccccc23)CC1` [taladegib], in experiment [1] (200 mg once a day for 12 weeks), the “change from baseline in percent quantitative ground glass opacity (% QGG)” value is “about −4.6%”, the “change from baseline in percent quantitative interstitial lung disease (% QILD)” value is “about −9%” and the “change from baseline in percent quantitative lung fibrosis (% QLF)” value was “about −2%”. Moreover, the “increase in total lung capacity (TLC)” value in experiment [1] (200 mg once a day for 12 weeks, p=0.005) was “about 200 mL”. Moreover, the “increase in total lung capacity (TLC), percent” value in experiment [1] (200 mg once a day, over the three month treatment period) is on record as “about 8%”. For the same compound, in experiment [2] (treated over 12 weeks), the “fibrosis (conclusion in words)” value is given as “reduced”, the “lung volume (conclusion in words)” value is “significantly improved” and the “pulmonary vascular volume (conclusion in words)” value was “significantly reduced”. Also, the “Change in Pulmonary vascular volume (normalised to lung volume)” value in experiment [2] (week 12, 16 patients on ENV-101, p=0.0007 vs placebo) is recorded as −0.25%. In experiment [2] (week 12, 16 patients on ENV-101, p=0.014 vs placebo), the “Lung volume change (total lung volume, Lung8)” value amounted to 142.28 mL. Moreover, the “Change in Fibrosis (extent, normalised to lung volume)” value in experiment [2] (week 12, 16 patients on ENV-101, p=0.063 vs placebo) is listed as −1.32%. For the same compound, in experiment [2] (setting [5]), the “effect size, change in pulmonary vascular volume” value was −1.28 and the “effect size, lung volume change” value is 0.87. Besides, the “mean change from baseline of percent predicted forced vital capacity (ppFVC)” value in experiment [3] (IPF subjects, 200 mg QD, at 6 weeks (n=16)) is reported as 1.7%. Also, in experiment [3] (post-hoc analysis, ENV-101 vs placebo, Hedges' G), the “effect size, % predicted FVC” value is listed as 0.78. Besides, the “% predicted FVC compared to placebo” value in experiment [3] (post-hoc analysis, patients with baseline and week 12 HRCT, p=0.03) was “significant improvement”. Moreover, the “mean change from baseline of responses to the UCSD Shortness of Breath Questionnaire (SOBQ)” value in experiment [4] is given as “improvement”.
